Where a name gives a salt, the structure may show the parent alone.
Columns and labels:
[1] = target: T1, Adrenergic β2 (H292 cells) (Homo sapiens, UniProt P07550); assay: Assay for Adrenergic β2 Mediated cAMP Production (concentration response, AlphaScreen cAMP detection); type: cell-based; conditions: for EC50: cAMP production, 60 minutes at room temperature, 300 μM rolipram, read-out: β2 pEC50 (converted); for β2 Intrinsic activity: fraction relative to the maximum activity determined for formoterol
T1 construct: endogenous in cells; host or cells: H292 cells
Method: Assay for Adrenergic β2 Mediated Camp Production
H292 cells are grown in 225 cm2 flasks incubator at 37° C., 5% CO2 in RPMI medium containing 10% (v/v) FBS (foetal bovine serum) and 2 mM L-glutamine.
Adherent H292 cells are removed from tissue culture flasks by treatment with Accutase™ cell detachment solution for 15 minutes. Flasks are incubated for 15 minutes in a humidified incubator at 37° C., 5% CO2. Detached cells are re-suspended in RPMI media (containing 10% (v/v) FBS and 2 mM L-glutamine) at 0.1×10^6 cells per mL. 10000 cells in 100 μL are added to each well of a tissue-culture-treated 96-well plate and the cells incubated overnight in a humidified incubator at 37° C., 5% CO2. The culture media is removed and cells are washed twice with 100 μL assay buffer and replaced with 50 μL assay buffer (HBSS solution containing 10 mM HEPES pH7.4 and 5 mM glucose). Cells are rested at room temperature for 20 minutes after which time 25 μL of rolipram (1.2 mM made up in assay buffer containing 2.4% (v/v) dimethylsulphoxide) is added. Cells are incubated with rolipram for 10 minutes after which time test compounds are added and the cells are incubated for 60 minutes at room temperature. The final rolipram concentration in the assay is 300 μM and final vehicle concentration is 1% (v/v) dimethylsulphoxide. The reaction is stopped by removing supernatants, washing once with 100 μL assay buffer and replacing with 50 μL lysis buffer. The cell monolayer is frozen at −80° C. for 30 minutes (or overnight).
AlphaScreen™ cAMP Detection
The concentration of cAMP (cyclic adenosine monophosphate) in the cell lysate is determined using AlphaScreen™ methodology. The frozen cell plate is thawed for 20 minutes on a plate shaker then 10 μL of the cell lysate is transferred to a 96-well white plate. 40 μL of mixed AlphaScreen™ detection beads pre-incubated with biotinylated cAMP, is added to each well and the plate incubated at room temperature for 3 hours in the dark. The AlphaScreen™ signal is measured using an EnVision spectrophotometer (Perkin-Elmer Inc.) with the recommended manufacturer's settings. cAMP concentrations are determined by reference to a calibration curve determined in the same experiment using standard cAMP concentrations. Concentration response curves for agonists are constructed and data is fitted to a four parameter logistic equation to determine both the pEC50 and Intrinsic Activity. Intrinsic Activity is expressed as a fraction relative to the maximum activity determined for formoterol in each experiment.

[2] = target: T2, human muscarinic acetylcholine M3 receptor (M3-ACh) (Homo sapiens, UniProt P20309); assay: Muscarinic 3 Receptor Binding Assay ([3H]NMS competition, SPA); conditions: [3H]NMS 0.1 nM, CHO-K1 cell membranes, 16 hours at room temperature; read-out: M3 pIC50 (converted)
T2 construct: expressed in transfected cells; host or cells: CHO-K1 (Chinese Hamster Ovary) cell membranes
Method: Muscarinic 3 Receptor Binding Assay
The affinity (pIC50) of compounds binding to the M3 receptor is determined by competition binding of [^3H]N-methyl scopolamine (NMS) to CHO-K1 (Chinese Hamster Ovary) cell membranes expressing the human muscarinic acetylcholine M3 receptor (M3-ACh) in a scintillation proximity assay (SPA) format.
SPA beads are precoated with membranes and then incubated at 2 mg of beads per well with serial dilutions of compounds of the invention, [^3H]NMS at 0.1 nM, quarter Kd (experimentally determined dissociation constant) and assay buffer (20 mM HEPES pH 7.4 containing 5 mM MgCl2). The assay is conducted in a final volume of 200 μL, in the presence of 1% (v/v) dimethyl sulphoxide (DMSO). Total binding of [^3H]NMS is determined in the absence of competing compound and non-specific binding of [^3H]NMS is determined in the presence of 1 μM atropine. The plates are incubated for 16 hours at room temperature and then read on Wallac Microbeta™ using a normalised ^3H protocol. The pIC50, defined as the negative logarithm of the molar concentration of compound required for 50% reduction in specific [^3H]-NMS binding, is determined.

T1 sequence (P07550 whole entry): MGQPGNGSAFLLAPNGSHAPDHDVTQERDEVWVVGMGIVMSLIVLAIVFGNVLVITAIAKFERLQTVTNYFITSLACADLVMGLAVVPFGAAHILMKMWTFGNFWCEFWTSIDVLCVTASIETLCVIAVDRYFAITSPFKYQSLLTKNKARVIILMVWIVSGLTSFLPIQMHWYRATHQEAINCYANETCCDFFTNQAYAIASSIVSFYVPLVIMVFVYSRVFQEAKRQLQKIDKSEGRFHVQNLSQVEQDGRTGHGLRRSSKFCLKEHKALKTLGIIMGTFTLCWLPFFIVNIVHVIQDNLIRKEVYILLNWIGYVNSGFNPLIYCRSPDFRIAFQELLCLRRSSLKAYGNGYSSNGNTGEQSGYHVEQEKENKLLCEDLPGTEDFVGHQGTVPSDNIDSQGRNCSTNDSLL
T2 sequence (P20309 whole entry): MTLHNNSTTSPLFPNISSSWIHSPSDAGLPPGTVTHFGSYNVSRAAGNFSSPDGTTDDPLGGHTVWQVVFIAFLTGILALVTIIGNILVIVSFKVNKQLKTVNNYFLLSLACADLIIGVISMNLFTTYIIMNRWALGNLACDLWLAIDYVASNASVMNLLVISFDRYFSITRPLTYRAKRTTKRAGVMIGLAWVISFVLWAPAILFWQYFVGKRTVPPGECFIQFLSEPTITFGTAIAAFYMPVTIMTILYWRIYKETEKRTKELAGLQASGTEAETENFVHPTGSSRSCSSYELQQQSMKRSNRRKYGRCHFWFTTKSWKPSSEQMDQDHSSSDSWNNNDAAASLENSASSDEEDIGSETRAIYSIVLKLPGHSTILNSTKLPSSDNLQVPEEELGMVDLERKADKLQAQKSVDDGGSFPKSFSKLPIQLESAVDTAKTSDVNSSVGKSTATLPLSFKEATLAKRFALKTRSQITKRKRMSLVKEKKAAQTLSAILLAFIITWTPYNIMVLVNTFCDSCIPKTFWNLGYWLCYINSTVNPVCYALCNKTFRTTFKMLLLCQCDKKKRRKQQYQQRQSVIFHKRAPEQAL

Compound	EC50 [1] [nM]	β2 Intrinsic activity [1]	IC50 [2] [nM]
Cc1nc(C(=O)N2CCOC3(CCN(Cc4cccc(CCNC[C@H](O)c5ccc(O)c6[nH]c(=O)ccc56)c4)CC3)C2)cs1 [Example 7, (R)-8-Hydroxy-5-(1-hydroxy-2-(3-((4-(2-methylthiazole-4-carbonyl)-1-oxa-4,9-diazaspiro[5.5]undecan-9-yl)methyl)phenethylamino)ethyl)quinolin-2(1H)-one ditrifluoroacetate]	6.31	0.8	0.501
Cc1nc(C(=O)N2CCOC3(CCN(CCCOc4ccc(CNC[C@H](O)c5ccc(O)c6[nH]c(=O)sc56)cc4)CC3)C2)cs1 [Example 8, (R)-4-Hydroxy-7-(1-hydroxy-2-(4-(3-(4-(2-methylthiazole-4-carbonyl)-1-oxa-4,9-diazaspiro[5.5]undecan-9-yl)propoxy)benzylamino)ethyl)benzo[d]thiazol-2(3H)-one ditrifluoroacetate]	39.8	1.0	3.98
Cc1ccc(C(=O)N2CCOC3(CCN(Cc4cccc(CCNC[C@H](O)c5ccc(O)c6[nH]c(=O)ccc56)c4)CC3)C2)s1 [Example 9, (R)-8-Hydroxy-5-(1-hydroxy-2-(3-((4-(5-methylthiophene-2-carbonyl)-1-oxa-4,9-diazaspiro[5.5]undecan-9-yl)methyl)phenethylamino)ethyl)quinolin-2(1H)-one ditrifluoracetate]	5.01	0.9	2
Cc1nc(C(=O)N2CCOC3(CCN(CCOc4cccc(CNC[C@H](O)c5ccc(O)c6[nH]c(=O)sc56)c4)CC3)C2)cs1 [Example 10, (R)-4-Hydroxy-7-(1-hydroxy-2-(3-(2-(4-(2-methylthiazole-4-carbonyl)-1-oxa-4,9-diazaspiro[5.5]undecan-9-yl)ethoxy)benzylamino)ethyl)benzo[d]thiazol-2(3H)-one ditrifluoroacetate]	316	0.9	5.01
CCc1ccc(C(=O)N2CCOC3(CCN(Cc4cccc(CCNC[C@H](O)c5ccc(O)c6[nH]c(=O)ccc56)c4)CC3)C2)s1 [Example 12, (R)-5-(2-(3-((4-(5-Ethylthiophene-2-carbonyl)-1-oxa-4,9-diazaspiro[5.5]undecan-9-yl)methyl)phenethylamino)-1-hydroxyethyl)-8-hydroxyquinolin-2(1H)-one ditrifluoroacetate]	10	1	1
Cc1nc(C(=O)N2CCOC3(CCN(Cc4ccc(CCNC[C@H](O)c5ccc(O)c6[nH]c(=O)ccc56)s4)CC3)C2)cs1 [Example 14, (R)-8-Hydroxy-5-(1-hydroxy-2-(2-(5-((4-(2-methylthiazole-4-carbonyl)-1-oxa-4,9-diazaspiro[5.5]undecan-9-yl)methyl)thiophen-2-yl)ethylamino)ethyl)quinolin-2(1H)-one ditrifluoroacetate]	5.01	0.9	6.31
Cc1ccc(C(=O)N2CCOC3(CCN(Cc4cccc(CCNC[C@H](O)c5ccc(O)c6[nH]c(=O)sc56)c4)CC3)C2)s1 [Example 15, (R)-4-Hydroxy-7-(1-hydroxy-2-(3-((4-(5-methylthiophene-2-carbonyl)-1-oxa-4,9-diazaspiro[5.5]undecan-9-yl)methyl)phenethylamino)ethyl)benzo[d]thiazol-2(3H)-one trifluoroacetate]	2.51	0.9	1.26
Cc1nc(C(=O)N2CCOC3(CCN(Cc4ccc(CCNC[C@H](O)c5ccc(O)c6[nH]c(=O)sc56)cc4)CC3)C2)cs1 [Example 16, (R)-4-Hydroxy-7-(1-hydroxy-2-(4-((4-(2-methylthiazole-4-carbonyl)-1-oxa-4,9-diazaspiro[5.5]undecan-9-yl)methyl)phenethylamino)ethyl)benzo[d]thiazol-2(3H)-one ditrifluoroacetate]	15.8	0.9	7.94

Source: patent publication US8148373B2, “Compounds” (AstraZeneca AB, priority 2008, dated 2012)
